Measurements: patent US20250084094A1 (Vertex Pharmaceuticals Incorporated, priority 2021, published 2025)

Molecular target: T1, APOL1 (Homo sapiens, UniProt O14791)
T1 sequence (O14791 1-398 S342G/I384M): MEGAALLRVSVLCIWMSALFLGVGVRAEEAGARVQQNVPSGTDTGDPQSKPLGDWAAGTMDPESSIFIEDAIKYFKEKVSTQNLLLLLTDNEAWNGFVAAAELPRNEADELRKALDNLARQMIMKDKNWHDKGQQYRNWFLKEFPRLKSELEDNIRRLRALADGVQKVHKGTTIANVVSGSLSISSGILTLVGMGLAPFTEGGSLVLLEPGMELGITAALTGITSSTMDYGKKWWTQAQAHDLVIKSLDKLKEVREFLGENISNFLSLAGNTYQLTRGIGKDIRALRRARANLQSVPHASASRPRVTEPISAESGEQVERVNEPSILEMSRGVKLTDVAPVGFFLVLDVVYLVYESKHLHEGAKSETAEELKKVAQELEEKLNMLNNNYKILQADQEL
Assay: MultiTox-Fluor Multiplex Cytotoxicity Assay in tet-inducible APOL1 T-REx-HEK293 cells
Assay type: cell-based
Settings: tet-inducible transgenic APOL1 T-REx-HEK293 cell lines, 50 ng/mL tet, 24 hours, ratio of dead to live cells; read-out: IP50 (nM) (i.e., IC50 for cell proliferation)
Method: The MultiTox-Fluor Multiplex Cytotoxicity Assay is a single-reagent-addition, homogeneous, fluorescence assay that measures the number of live and dead cells simultaneously in culture wells. The assay measures cell viability and cytotoxicity by detecting two distinct protease activities. The live-cell protease activity is restricted to intact viable cells and is measured using a fluorogenic, cell-permeant peptide glycyl-phenylalanylamino fluorocoumarin (GF-AFC) substrate. The substrate enters intact cells, where it is cleaved to generate a fluorescent signal proportional to the number of living cells. […] A second, cell-impermeant, fluorogenic peptide substrate (bis-AAF-R110 Substrate) is used to measure dead-cell protease that has been released from cells that have lost membrane integrity. A ratio of dead to live cells is used to normalize data.
Briefly, the tet-inducible transgenic APOL1 T-REx-HEK293 cell lines were incubated with 50 ng/mL tet to induce APOL1 in the presence of 3-(2-(4-fluorophenyl)-1H-indol-3-yl)-N-((3S,4R)-4-hydroxy-2-oxopyrrolidin-3-yl)propenamide at 10.03, 3.24, 1.13, 0.356, 0.129, 0.042, 0.129, 0.0045, 0.0015, 0.0005 μM in duplicate for 24 hours in a humidified 37° C. incubator. The MultiTox reagent was added to each well and placed back in the incubator for an additional 30 minutes. The plate was read on the EnVision plate reader. A ratio of dead to live cells was used to normalize, and data was imported, analyzed, and fit using Genedata Screener (Basel, Switzerland) software. Data was normalized using percent of control, no tet (100% viability), and 50 ng/mL tet treated (0% viability),and fit using Smart Fit. The reagents, methods, and complete protocol for the MultiTox assay are described below.
Human embryonic kidney (HEK293) cell lines containing a tet-inducible expression system (T-REx™; Invitrogen, Carlsbad, CA) and Adeno-associated virus site 1 pAAVS1-Puro-APOL1 G0 or pAAVS1-Puro-APOL1 G1 or pAAVS1-Puro-APOL1 G2 Clones G0 DC2.13, Gi DC3.25, and G2 DC4.44 were grown in a T-225 flask at ˜90% confluency in cell growth media (DMEM, 10% Tet-free FBS, 2 mM L-glutamine, 100 Units/mL penicillin-streptomycin, 5 μg/mL blasticidin S HCl, 1 μg/mL puromycin dihydrochloride). Cells were washed with DPBS and then trypsinized to dissociate from the flask. Media was used to quench the trypsin, cells were then pelleted at 200 g and resuspended in fresh cell assay media (DMEM, 2% Tet-free FBS, 2 mM L-glutamine, 100 Units/mL penicillin-streptomycin). Cells were counted and diluted to 1.17×10^6 cells/mL. 20 μL of cells (23,400/well) were dispensed in every well of a 384-well Poly-D-Lysine coated plate using the Multidrop dispenser. The plates were then incubated at room temperature for one hour.
Tetracycline is needed to induce APOL1 expression. 1 mg/mL tet stock in water was diluted to 250 ng/mL (5×) in cell assay media. 60 μL of cell assay media (no tet control) was dispensed in columns 1 and 24, and 60 μL of 5× tet in 384-PP-round bottom plate was dispensed in columns 2 to 23 with the Multidrop dispenser.
Assay ready plates from the Global Compound Archive were ordered using template 384_APOLICell_DR10n2_50 uM_v3. Compounds were dispensed at 200 nL in DMSO. The final top concentration was 10 μM with a 10 point 3-fold dilution in duplicate in the MultiTox assay.
20 μL was transferred from the 5× tet plate to the ARP and mixed, then 5 μL of 5× tet and the compounds were transferred to the cell plate and mixed using the Bravo. The cell plate was placed in the humidified 37° C. 5% CO2 incubator for 24 hours.
The MultiTox-Fluor Multiplex Cytotoxicity Assay was performed in accordance with the manufacturer's protocol. After cells were incubated with tet and compound for 24 hours, 25 μL of 1x MultiTox reagent was added to each well using the Multidrop dispenser; the plates were placed on a plate shaker (600 rpm) for 2 minutes, then centrifuged briefly and placed back in the 37° C. incubator for 30 minutes. […]

Structure (SMILES) | IC50 [nM]
C[C@H]1CC2(C[C@@H](c3cn(C)nn3)N1)OC(C(N)=O)c1cc(Cl)ccc12 (single isomer, unassigned) [Compound 40, (2′S,6′S)-6-chloro-2′-methyl-6′-(1-methyltriazol-4-yl)spiro[1H-isobenzofuran-3,4′-piperidine]-1-carboxamide] | 50 to 500
C[C@H]1CC2(C[C@@H](c3cn(C)nn3)N1)OC(C(N)=O)c1ccc(Cl)cc12 (single isomer, unassigned) [Compound 42, (2′S,6′S)-5-chloro-2′-methyl-6′-(1-methyltriazol-4-yl)spiro[1H-isobenzofuran-3,4′-piperidine]-1-carboxamide] | 50 to 500
C[C@H]1C[C@@]2(C[C@@H](c3cn(C)nn3)N1)OCCc1cc(O)c(Cl)cc12 [Compound 1] | > 500
C[C@H]1C[C@@]2(C[C@@H](c3cn(C)nn3)N1)OCCc1ccc(Cl)c(O)c12 [Compound 2] | < 50
C[C@H]1C[C@@]2(C[C@@H](c3cnn(CCS(C)(=O)=O)c3)N1)OCCc1cc(O)c(Cl)cc12 [Compound 3] | > 500
C[C@H]1C[C@@]2(C[C@@H](c3ccn(CCS(C)(=O)=O)c3)N1)OCCc1ccc(Cl)c(O)c12 [Compound 4] | 50 to 500
COc1ccc2c(c1)CCO[C@@]21C[C@@H](c2cn(C)nn2)N[C@@H](C)C1 [Compound 5] | < 50
COc1cccc2c1[C@]1(C[C@@H](c3cn(C)nn3)N[C@@H](C)C1)OCC2 [Compound 6] | > 500
C[C@H]1C[C@@]2(C[C@@H](c3cn(C)nn3)N1)OCCc1cc(O)ccc12 [Compound 7] | 50 to 500
C[C@H]1C[C@@]2(C[C@@H](c3cn(C)nn3)N1)OCCc1cccc(O)c12 [Compound 8] | 50 to 500
C[C@H]1C[C@@]2(C[C@@H](c3cn(C)nn3)N1)OCCc1cc(Br)ccc12 [Compound 9] | < 50
C[C@H]1C[C@@]2(C[C@@H](c3cn(C)nn3)N1)OCCc1ccc(Cl)cc12 [Compound 10] | < 50
C[C@H]1C[C@@]2(C[C@@H](c3cn(C)nn3)N1)OCCc1ccc(C#N)cc12 [Compound 11] | 50 to 500
C[C@H]1C[C@@]2(C[C@@H](c3cn(C)nn3)N1)OCCc1ccccc12 [Compound 12] | < 50
CCc1ccc2c(c1)[C@]1(C[C@@H](c3cn(C)nn3)N[C@@H](C)C1)OCC2 [Compound 13, (1S,2′S,6′S)-7-ethyl-2′-methyl-6′-(1-methyl-1H-1,2,3-triazol-4-yl)spiro[isochromane-1,4′-piperidine]] | < 50
C[C@H]1C[C@@]2(C[C@@H](c3cn(C)nn3)N1)OCCc1cc(OS(=O)(=O)C(F)(F)F)ccc12 [Compound 14] | 50 to 500
C[C@H]1C[C@@]2(C[C@@H](c3cn(C)nn3)N1)OCCc1cc(Cl)ccc12 [Compound 15] | < 50
Cc1ccc2c(c1)CCO[C@@]21C[C@@H](c2cn(C)nn2)N[C@@H](C)C1 [Compound 16] | < 50
CCc1ccc2c(c1)CCO[C@@]21C[C@@H](c2cn(C)nn2)N[C@@H](C)C1 [Compound 17] | < 50

Structure (SMILES) | IC50 [nM]
CC(C)c1ccc2c(c1)CCO[C@@]21C[C@@H](c2cn(C)nn2)N[C@@H](C)C1 [Compound 18] | < 50
COC(=O)c1ccc2c(c1)CCO[C@@]21C[C@@H](c2cn(C)nn2)N[C@@H](C)C1 [Compound 19] | > 500
C[C@H]1C[C@@]2(C[C@@H](c3cn(C)nn3)N1)OCCc1cc(C(C)(C)O)ccc12 [Compound 20] | 50 to 500
C[C@H]1C[C@@]2(C[C@@H](c3cn(C)nn3)N1)OCCc1cc(C#N)ccc12 [Compound 21] | 50 to 500
C[C@H]1C[C@@]2(C[C@@H](c3cn(C)nn3)N1)OCCc1cc(CO)ccc12 [Compound 22] | > 500
C[C@H]1C[C@@]2(C[C@@H](c3cn(C)nn3)N1)OCCc1cc(C(F)(F)F)ccc12 [Compound 23] | < 50
CC1CC2(CC(c3cnn(CCS(C)(=O)=O)c3)N1)OCCc1ccc(Cl)cc12 (stereo not shown) [Compound 24] | 50 to 500
C[C@H]1C[C@@]2(C[C@@H](c3cn(C)nn3)N1)OC[C@@H](O)c1cc(Cl)ccc12 [Compound 25] | < 50
C[C@H]1C[C@@]2(C[C@@H](c3cn(C)nn3)N1)OC[C@H](O)c1cc(Cl)ccc12 [Compound 26] | < 50
C[C@H]1C[C@@]2(C[C@@H](c3cn(C)nn3)N1)OC[C@@H](O)c1cc(C(F)(F)F)ccc12 [Compound 27, (1S,2′S,4S,6′S)-2′-methyl-6′-(1-methyl-1H-1,2,3-triazol-4-yl)-6-(trifluoromethyl)spiro[isochromane-1,4′-piperidin]-4-ol] | < 50
C[C@H]1C[C@@]2(C[C@@H](c3cn(C)nn3)N1)OC[C@H](O)c1cc(C(F)(F)F)ccc12 [Compound 28, (1S,2′S,4R,6′S)-2′-methyl-6′-(1-methyl-1H-1,2,3-triazol-4-yl)-6-(trifluoromethyl)spiro[isochromane-1,4′-piperidin]-4-ol] | < 50
C[C@H]1C[C@@]2(C[C@@H](c3cn(C)nn3)N1)OCC(O)c1ccc(Cl)cc12 (stereo partly shown) [Compound 29] | 50 to 500
C[C@H]1C[C@@]2(C[C@@H](c3cn(C)nn3)N1)OCC(O)c1ccc(Cl)cc12 (stereo partly drawn) [Compound 30, (1S,2′S,6′S)-7-chloro-2′-methyl-6′-(1-methyl-1H-1,2,3-triazol-4-yl)spiro[isochromane-1,4′-piperidin]-4-ol] | 50 to 500
C[C@H]1C[C@]2(C[C@@H](c3cn(C)nn3)N1)C(=O)Nc1ccccc12 [Compound 31, (2′S,3R,6′S)-2′-methyl-6′-(1-methyltriazol-4-yl)spiro[indoline-3,4′-piperidine]-2-one] | > 500
C[C@H]1C[C@@]2(C[C@@H](c3cn(C)nn3)N1)C(=O)Nc1ccccc12 [Compound 32, (2′S,3S,6′S)-2′-methyl-6′-(1-methyltriazol-4-yl)spiro[indoline-3,4′-piperidine]-2-one] | < 50
Cc1ccc2c(c1)NC(=O)[C@@]21C[C@@H](c2cn(C)nn2)N[C@@H](C)C1 [Compound 33, (2′S,3S,6′S)-2′,6-dimethyl-6′-(1-methyltriazol-4-yl)spiro[indoline-3,4′-piperidine]-2-one] | < 50
Cc1ccc2c(c1)[C@]1(C[C@@H](c3cn(C)nn3)N[C@@H](C)C1)C(=O)N2 [Compound 34, (2′S,3S,6′S)-2′,5-dimethyl-6′-(1-methyltriazol-4-yl)spiro[indoline-3,4′-piperidine]-2-one] | < 50
C[C@H]1C[C@@]2(C[C@@H](c3cn(C)nn3)N1)C(=O)Nc1ccc(Cl)cc12 [Compound 35, (2′S,3S,6′S)-5-chloro-2′-methyl-6′-(1-methyltriazol-4-yl)spiro[indoline-3,4′-piperidine]-2-one] | < 50
